For six compounds, IC50, EC50 and CC50 results are on record in publication PMC9960243, “Cytotoxic and Antileishmanial Effects of the Monoterpene β-Ocimene” (Pharmaceuticals, 2023).

The subject of data set [1] is L. amazonensis axenic amastigotes. On the set-up: method as in PMID 23457021. The conditions noted are these: read-out: IC50 against axenic amastigotes of L. amazonensis; cited from earlier work.
Data set [2] relates to RAW 264.7 macrophages infected with Leishmania amazonensis. Kind of data set: Treatment of infected macrophages (intra-macrophagic amastigotes, 72 h). As to conditions: 72 h, infected RAW 264.7 macrophages, read-out: Intramacrophagic Amastigotes EC50. Format: cell-based. The protocol: In a 24-well plate with 13 mm round sterile cover slips, RAW 264.7 macrophages were added (at a concentration of 10^5 cells to 1 mL of supplemented DMEM. For cell adhesion, the plates were incubated at 37 °C and 5% CO2 for 3 h. Three washes were then performed with PBS at 37 °C to discard non-adherent cells, after which 1 mL of DMEM supplemented (stationary phase) promastigote forms of L. amazonensis was added at the ratio of 10 promastigotes per macrophage. The plate was then incubated at 5% CO2 and 37 °C for 4 h. After infection, the medium was aspirated and the treatment was added using 1 mL of DMEM supplemented with β-ocimene (3.12–25 μM) with the reference drugs, meglumine antimoniate (1.56–200 μM) and amphotericin B (0.031–2 μM), this was subsequently incubated at 37 °C and 5% CO2 for 72 h. Finally, the coverslips were removed, fixed, stained, and mounted on permanent slides using Entellan. The number of infected macrophages and the number of parasites per macrophage were counted: 300 cells were evaluated on each slide at 1000× magnification. The infection index was calculated by multiplying the number of infected macrophages by the number of amastigotes per infected macrophage. The negative control was performed using DMEM with 0.5% DMSO. The supernatant was removed at the end of the experiment and kept at −20 °C for later use in nitric oxide dosing tests.

Data set [3] can be described thus: Cytotoxic effect on mammalian cells, Vero. The class given is cell-based. As to conditions: African green monkey, Vero cells.
For data set [4], the system named is Leishmania (Leishmania) amazonensis promastigotes. Kind of data set: microbe, parasite or virus in culture. As to conditions: 72 h, MTT. The class given is cell-based. The procedure: (§1) Strains of Leishmania (Leishmania) amazonensis (IFLA/BR/67/PH8) (promastigote form) were cultivated in Schneider’s insect medium (supplemented with 10% FBS, and 1% antibiotic solution), at 26 °C, and at pH 7, in a biological oxygen demand (BOD) incubator. To transform the promastigote forms into axenic amastigotes, the temperature was increased to 32 °C and the pH of the medium was adjusted to 5.5 [14].
(§2) Promastigote and axenic amastigote growth inhibition was tested as previously described by DIAS et al.. In a 96-well plate, parasites were seeded at 10^6 parasites per well in 100 μL of supplemented Schneider medium. The parasites were treated with differing concentrations of β-ocimene (1.56–12.5 μM), and reference drugs, meglumine antimoniate (500–40,000 μM) and amphotericin B (0.062–0.5 μM). The plates were incubated in a BOD incubator at 26 °C for 72 h. Afterwards, 10 µL of MTT (5 mg/mL) was added to each well, and the plate was incubated again for 4 h, when 50 µL of 10% SDS was added. Absorbances were then measured using an ELISA plate reader (BioSystems model ELx800, Curitiba, PR, Brazil) at 540 nm. The negative control consisted of Schneider medium with 0.5% DMSO and was considered as 0% inhibition.

For data set [5], the system named is Leishmania (Leishmania) amazonensis axenic amastigotes. Kind of data set: microbe, parasite or virus in culture. Format: cell-based. As to conditions: 72 h, MTT. The procedure:
as §1, §2

Data set [6] is described as follows: Cytotoxic effect on mammalian cells (MTT, 72 h), RAW 264.7. Format: cell-based. The conditions noted are these: mouse, RAW 264.7 macrophages, pH 7.2, MTT. The protocol:
(§3) RAW 264.7 lineage macrophages (available from the cell bank in Rio de Janeiro, Brazil) were used, grown in sterile bottles with DMEM medium, pH 7.2 containing 10% FBS and 1% penicillin 100 U/mL and streptomycin 100 μg/mL, and kept in an oven at 37 °C and 5% CO2.
(§4) In a 96-well plate, RAW 264.7 macrophages were plated at 10^5 cells per well in 100 μL of supplemented DMEM medium. The plate was incubated for 3 h at 37 °C and 5% CO2 for cell adhesion. Afterwards, to remove non-adhered cells, washing with PBS (phosphate-buffered saline solution) was performed. Furthermore, 100 μL of DMEM supplemented with β-ocimene (3.12–400 μM), and the reference drugs, meglumine antimoniate (250–2000 μM) and amphotericin B (0.062–0.5 μM) were then added to the wells, with oven incubation at 37 °C, and 5% CO2 for 72 h. Then, 10 μL of MTT (5 mg/mL) per well was then added, being kept for another 4 h in an oven at 37 °C and 5% CO2. The supernatant was removed, and 100 µL of DMSO was added to all wells. After 30 min of stirring, readings were taken at 540 nm. DMEM supplemented with 0.5% DMSO was used as a negative control and considered as 100% macrophage viability. The selectivity index for each treatment was calculated by dividing the CC50 by the IC50, or EC50 [32].

Data set [7] relates to L. infantum promastigotes. More on the design: method as in PMID 31151304. The conditions noted are these: read-out: IC50 against L. infantum promastigotes; cited from earlier work.
The subject of data set [8] is L. amazonensis promastigotes. On the set-up: method as in PMID 19321295. As to conditions: read-out: IC50 against L. amazonensis promastigotes; cited from earlier work.
A further data set relates to Vero cells. Kind of data set: Cytotoxic effect on mammalian cells, Vero. The class given is cell-based.
Another data set deals with RAW 264.7 macrophages. Kind of data set: Cytotoxic effect on mammalian cells (MTT, 72 h), RAW 264.7. Format: cell-based. As to conditions: MTT. The protocol:
as §3, §4

Where two headings read alike, the source gives them in different places.

The term IC50 denotes the concentration at which inhibition is half-maximal. Take `NC(=S)NN=Cc1ccc([N+](=O)[O-])cc1` [4-nitrobenzaldehyde thiosemicarbazone]: the IC50 in data set [1] is 8 µM.

What is called EC50 is the concentration needed to bring the measured effect to its halfway point. The CC50 is the concentration that lowers cell viability or growth by half. In the case of `C[C@@H]1[C@H](O)[C@@H](C)/C=C/C=C/C=C/C=C/C=C/C=C/C=C/[C@H](O[C@@H]2O[C@H](C)[C@@H](O)[C@H](N)[C@@H]2O)C[C@@H]2O[C@](O)(C[C@@H](O)C[C@@H](O)[C@H](O)CC[C@@H](O)C[C@@H](O)CC(=O)O[C@H]1C)C[C@H](O)[C@H]2C(=O)O` [Amphotericin B, reference compound], the concentration giving a half-maximal response (EC50) stood at 0.13 µM in [2] (Leishmania amazonensis, RAW264.7) and 0.51 ± 0.02 µM in data set [5] (Leishmania). The CC50 in data set [3] amounted to 2.46 ± 0.6 µM. This compound also returned an IC50 in data set [4] (Leishmania) of 0.35 ± 0.09 µM. In data set [6], this compound displayed a CC50 at 72 h of 0.39 ± 0.03 µM.

Regarding `Cc1ccc(C(C)C)cc1O` [carvacrol], in data set [7], the IC50 is 65 µM.

As to `C=C(C)[C@H]1CC=C(C)CC1` [limonene], in data set [8], the IC50 was 252 µM.

Regarding `Cc1ccc(C(C)C)c(O)c1` [thymol], the IC50 in data set [7] was 48 µM.

Consider “Meglumine antimoniate [reference compound]”, for which the EC50 in data set [2] came out at 578 ± 19.1 µM; in [5], 1730 ± 36.8 µM. Further, the CC50 in the data set on Vero cells is 22800 µM; in the data set with RAW 264.7 macrophages it was 15900 µM. In addition, half-maximal inhibition in data set [4] (IC50) required 2150 ± 31 µM.
